The subject of one data set is CXF HT-29. Nature of the data set: 2D cell proliferation assay (CellTiter-Blue). As to conditions: Homo sapiens, 72 h; cell line CXF HT-29; three days of treatment; read-out: IC (abs. IC50). It is filed as cell-based. On the procedure:
(§1) Viability of the cells was analyzed by using the CellTiter-Blue® Cell Viability Assay (Promega), and was performed according to manufacturer's instructions. Briefly, cells were harvested from exponential phase cultures (Chapter 6.6), counted and plated in 96-well flat-bottom microtiter plates at a cell density of 4,000-60,000 cells/well in a volume of 140 μl per well. After a 24 hours recovery period, 10 μL cell culture medium (six control wells/plate) or culture medium with test compound were added (Chapter 6.2). The compounds were applied at five concentrations in full-log increments up to 100 μM in duplicate. Cultures were incubated at 37° C. and 5% CO2 in a humidified atmosphere for another three days. After three days of treatment, 20 μl/well CellTiter-Blue® reagent was added. Following incubation with CellTiter-Blue® reagent for up to four hours, fluorescence (FU) was measured by using the Enspire Multimode Plate Reader (excitation λ=570 nm, emission λ=600 nm). For calculations, the mean values of duplicate/sextuplicate (untreated control) data were used.
(§2) Drug effects were expressed in terms of the percentage of the fluorescence signal, obtained by comparison of the mean signal in the treated wells with the mean signal of the untreated controls (expressed by the test-versus-control value, T/C-value [%]):
(§3) IC values are reported as relative IC50 values and absolute IC50 and IC70 values. […] The absolute IC70 value gives the concentration of the test compound that achieves T/C=30%. The relative IC50 value is the concentration of test compound that gives a response half way between the top and bottom plateau of the sigmoidal concentration-response curve (inflection point of the curve). Calculation was done by 4parameter non-linear curve fit (Oncotest Data Warehouse Software).
(§4) If an IC50 or IC70 value could not be determined within the examined dose range (because a compound was either too active or lacked activity), the lowest or highest concentration studied was used for calculation of the geometric mean value.
(§5) The overall potency of a compound was determined by the geometric mean IC50/IC70 values of all individual IC50/IC70 values. In the heatmap representation of IC50 and IC70 values, the distribution of the IC50 or IC70 values obtained for a test compound in the individual cell lines is given in relation to the geometric mean […] or IC70 value, obtained over all PDX models tested. The individual IC values range from 1/32-fold geometric mean IC (corresponding to very potent compound activity or high tumor sensitivity) to 32-fold geometric mean IC (corresponding to lack of compound activity or tumor resistance). The heatmap presentation, therefore, represents an antiproliferative “fingerprint” profile of a test compound.
In general terms: Alamar Blue is a resazurin reagent that responds to reducing activity.

The next data set deals with GXA MKN45. Nature of the data set: 2D cell proliferation assay (CellTiter-Blue). As to conditions: Homo sapiens, MKN-45, 72 h; cell line GXA MKN45; three days of treatment; read-out: IC (abs. IC50). The format is cell-based. On the procedure: as §1, §2, §3, §4, §5
The subject of a further data set is LEXFAM MV4-11. Nature of the data set: 2D cell proliferation assay (CellTiter-Blue). It is filed as cell-based. The following applies: Homo sapiens, 72 h; cell line LEXFAM MV4-11; three days of treatment; read-out: IC (abs. IC50). On the procedure: as §1, §2, §3, §4, §5
The subject of another data set is LEXFCL MEC-1. Put plainly: 2D cell proliferation assay (CellTiter-Blue). It is filed as cell-based. The following applies: Homo sapiens, MEC1, 72 h; cell line LEXFCL MEC-1; three days of treatment; read-out: IC (abs. IC50). On the procedure: as §1, §2, §3, §4, §5
In the next data set the test system is LIXAH HLE. Put plainly: 2D cell proliferation assay (CellTiter-Blue). It is filed as cell-based. As to conditions: 72 h; cell line LIXAH HLE; three days of treatment; read-out: IC (abs. IC50). On the procedure: as §1, §2, §3, §4, §5
For another data set, the system named is LXFE Calu-1. Nature of the data set: 2D cell proliferation assay (CellTiter-Blue). The format is cell-based. The following applies: Homo sapiens, 72 h; cell line LXFE Calu-1; three days of treatment; read-out: IC (abs. IC50). On the procedure: as §1, §2, §3, §4, §5
Another data set relates to LXFL NCI-H460. Put plainly: 2D cell proliferation assay (CellTiter-Blue). It is filed as cell-based. As to conditions: Homo sapiens, 72 h; cell line LXFL NCI-H460; three days of treatment; read-out: IC (abs. IC50). On the procedure:
as §1, §2, §3, §4, §5

The subject of another data set is MAXFTN BT-549. Nature of the data set: 2D cell proliferation assay (CellTiter-Blue). It is filed as cell-based. The following applies: Homo sapiens, 72 h; cell line MAXFTN BT-549; three days of treatment; read-out: IC (abs. IC50). On the procedure:
as §1, §2, §3, §4, §5

The test system of the next data set is MAXFTN MDA-MB-231 (ER −). Put plainly: 2D cell proliferation assay (CellTiter-Blue). The format is cell-based. As to conditions: Homo sapiens, 72 h; cell line MAXFTN MDA-MB-231 (ER −); three days of treatment; read-out: IC (abs. IC50). On the procedure: as §1, §2, §3, §4, §5
The test system of another data set is MEXF M14. Nature of the data set: 2D cell proliferation assay (CellTiter-Blue). As to conditions: 72 h; cell line MEXF M14; three days of treatment; read-out: IC (abs. IC50). The format is cell-based. On the procedure:
as §1, §2, §3, §4, §5

For another data set, the system named is MEXF MDA-MB-435. Nature of the data set: 2D cell proliferation assay (CellTiter-Blue). As to conditions: Homo sapiens, 72 h; cell line MEXF MDA-MB-435; three days of treatment; read-out: IC (abs. IC50). The format is cell-based. On the procedure: as §1, §2, §3, §4, §5
The test system of another data set is MEXF WM-266-4. Nature of the data set: 2D cell proliferation assay (CellTiter-Blue). It is filed as cell-based. As to conditions: Homo sapiens, 72 h; cell line MEXF WM-266-4; three days of treatment; read-out: IC (abs. IC50). As to the method: as §1, §2, §3, §4, §5
In the next data set the test system is OVXF SK-OV-3. Nature of the data set: 2D cell proliferation assay (CellTiter-Blue). It is filed as cell-based. As to conditions: Homo sapiens, 72 h; cell line OVXF SK-OV-3; three days of treatment; read-out: IC (abs. IC50). As to the method:
as §1, §2, §3, §4, §5

Another data set deals with PAXF MIA-Pa-Ca-2. Put plainly: 2D cell proliferation assay (CellTiter-Blue). The format is cell-based. The following applies: Homo sapiens, MIA PaCa-2, 72 h; cell line PAXF MIA-Pa-Ca-2; three days of treatment; read-out: IC (abs. IC50). As to the method: as §1, §2, §3, §4, §5
A further data set relates to PRXF 22Rv1. Put plainly: 2D cell proliferation assay (CellTiter-Blue). As to conditions: Homo sapiens, 72 h; cell line PRXF 22Rv1; three days of treatment; read-out: IC (abs. IC50). It is filed as cell-based. On the procedure: as §1, §2, §3, §4, §5
For another data set, the system named is PRXF DU-145. Nature of the data set: 2D cell proliferation assay (CellTiter-Blue). The format is cell-based. As to conditions: Homo sapiens, 72 h; cell line PRXF DU-145; three days of treatment; read-out: IC (abs. IC50). As to the method:
as §1, §2, §3, §4, §5

Data set [1] in a line: Nonclinical pharmacokinetic study, IV and oral, in rats.
Experimental: Nonclinical pharmacokinetic (PK) parameters of lead CDK4/6/9 inhibitors were determined in an intravenous (IV) and oral study (p.o.) conducted in rats. Lead compounds were each administered as a single oral dose at 100 mg/kg or by IV bolus via the caudal vein at the dose of 30 mg/kg. Blood samples were collected at 0.25, 0.5, 1, 2, 4, 8, 12, and 24 hours post i.v. administration, and at 1, 2, 4, 8, 24 and 48 hours post oral administration. Plasma was processed for drug concentration analysis using a validated LCMS/MS method, and PK parameters were calculated by using WinNonlin.
[2] abbreviates: rats, oral administration, 100 mg/kg, N = 3.

The IC50 is the midpoint of a concentration-inhibition curve. One may read the Cmax as the highest concentration seen after dosing. Broadly, the half-life is the time needed for the level to fall by half in the phase considered. Read a high half-life as slow loss. One may read the MRT as the average time that molecules of a dose stay in the body. As a reminder, the AUC is the area under the concentration-time curve, a measure of exposure. Low values mean less exposure, high ones more exposure. As for `CN1CCN(c2ccc(Nc3ncc4cc(C(=O)N(C)C)n(C56CC(C5)C6)c4n3)cc2)CC1` [SPV113], the IC50 with CXF HT-29 was 0.437 µM; with GXA MKN45, 1.08 µM; in the data set with LEXFAM MV4-11, at most 0.01 µM; in the data set on LEXFCL MEC-1 it was at most 0.01 µM; in the data set on LIXAH HLE, 0.229 µM; in the data set on LXFE Calu-1, 1.56 µM. The IC50 in the data set on LXFL NCI-H460 amounted to 0.291 µM; in the data set on MAXFTN BT-549, 0.713 µM; in the data set with MAXFTN MDA-MB-231 (ER −), 0.34 µM; in the data set with MEXF M14, 1.01 µM; in the data set on MEXF MDA-MB-435, 0.296 µM; in the data set on MEXF WM-266-4, 3.3 µM. The IC50 in the data set on OVXF SK-OV-3 is 3.15 µM; in the data set with PAXF MIA-Pa-Ca-2 it was 0.105 µM; in the data set with PRXF 22Rv1, at most 0.01 µM; with PRXF DU-145, 0.253 µM. The Cmax turned out to be 6830 ng/mL in data set [1] (rat, plasma, iv, 30 mg/kg) and 2520 ng/mL in [1] (rat, plasma, po, 100 mg/kg). In data set [1] (rat, plasma, iv, 30 mg/kg), this compound had a clearance of 18.7 mL/min/kg. This compound also gave a half-life in [1] (rat, plasma, iv, 30 mg/kg) of 5.73 h. The compound further had an MRT in data set [1] (rat, plasma, po, 100 mg/kg) of 25.5 h. Also, the “BIOAVAILABILITY F” value in [1] (rats, oral 100 mg/kg vs IV bolus 30 mg/kg) is listed as 33.3%. The same compound showed an AUC in [1] (setting [2]) of 33798 ng·h/mL. Further, the T1/2 in data set [1] (setting [2]) is 6.0 h.

The values above are taken from patent publication US20220056037A1 (SPV THERAPEUTICS INC., priority 2018, published 2022).
